This note sets out measurements from ChEMBL document CHEMBL4321843, “Discovery of small-molecule candidates against inflammatory bowel disease” (Eur J Med Chem, 2020).

Format in all cases: functional
Experiment [1] concerns Mus musculus. Description: Anti-colitis activity in C57BL/6 (B6) mouse model of DSS-induced colitis assessed as disease activity index at 100 mg/kg, ig pretreated for 3 days followed by DSS treatment for 7 days (reference value: 5.67 +/- 1.03).
For experiment [2], the system named is Rattus norvegicus. Description: Anti-colitis activity in Sprague-Dawley rat model of acetic acid-induced colitis assessed as colon mucosa damage index at 50 mg/kg, po administered for 7 consecutive days and measured on day 8 (reference value: 3.3 +/- 0.6).
Experiment [3] relates to Rattus norvegicus. Description: Anti-colitis activity in Sprague-Dawley rat model of acetic acid-induced colitis assessed as histological scores at 50 mg/kg, po administered for 7 consecutive days and measured on day 8 (reference value: 9.3 +/- 2.8).
Experiment [4] deals with Rattus norvegicus. As to the kind of experiment: Anti-colitis activity in Sprague-Dawley rat model of acetic acid-induced colitis assessed as disease activity index at 50 mg/kg, po administered for 7 consecutive days and measured on day 8 (reference value: 3.9 +/- 0.4).
In experiment [5] the test system is Rattus norvegicus. As to the kind of experiment: Antiinflammatory activity in Sprague-Dawley rat model of acetic acid-induced colitis assessed as reduction in IFNgamma level in serum at 50 mg/kg, po administered for 7 consecutive days and measured on day 8 by ELISA method. A general note: In an ELISA, binding on a coated surface is turned into a signal by an enzyme label.

The subject of experiment [6] is Mus musculus. As to the kind of experiment: Anti-colitis activity in ICR mouse model of DSS-induced colitis assessed as reduction in DSS-induced body weight loss at 6 mg, po for 14 days relative to control. The arrangement: scale not given: the % may be the effect or the level left.
Experiment [7] has as its system Mus musculus. Description: Anti-colitis activity in ICR mouse model of DSS-induced colitis assessed as inhibition of DSS-induced colorectum shortening at 6 mg, po for 14 days relative to control.

Regarding `O=C(O)[C@H]1O[C@@H](Oc2cc3oc(-c4ccccc4)cc(=O)c3c(O)c2O)[C@H](O)[C@@H](O)[C@@H]1O` [BAICALIN], in the experiment on Mus musculus [1], the Activity_index is reported as 3.33.
On to `O=C(O[C@@H]1Cc2c(O)cc(O)cc2O[C@@H]1c1cc(O)c(O)c(O)c1)c1cc(O)c(O)c(O)c1` [EPIGALOCATECHIN GALLATE], for which the Activity_index is 1.5 with Rattus norvegicus [2] and 1.1 with Rattus norvegicus [4]. The Activity in the experiment with Rattus norvegicus [3] amounted to 4.6; with Rattus norvegicus [5], 33.3 pg/mL.
With `O=c1c(O)c(-c2ccc(O)c(O)c2)oc2cc(O)cc(O)c12` [QUERCETIN], the Activity in the experiment on Mus musculus [6] is 21%. The “inhibition (INH)” value in the experiment with Mus musculus [7] was determined as 18%.
The like results for `C[C@@H]1O[C@@H](OC[C@H]2O[C@@H](Oc3c(-c4ccc(O)c(O)c4)oc4cc(O)cc(O)c4c3=O)[C@H](O)[C@@H](O)[C@@H]2O)[C@H](O)[C@H](O)[C@H]1O` [RUTIN] were, in that order, 54% and 73%.
